Test results taken from article PMC11012124, “Synthesis of Novel Triazine-Based Chalcones and 8,9-dihydro-7H-pyrimido[4,5-b][1,4]diazepines as Potential Leads in the Search of Anticancer, Antibacterial and Antifungal Agents” (International Journal of Molecular Sciences, 2024).
Converted amounts (≈) assume the structure as drawn.

How the values were obtained:
[1] = test system: S. aureus ATCC 43300; assay: Antibacterial MIC, microdilution; type: cell-based; conditions: Staphylococcus aureus; S. aureus ATCC 43300 (MRSA)
[2] = test system: S. aureus ATCC 43300; conditions: tetracycline; cited from earlier work
[3] = test system: N. gonorrhoeae ATCC 49226; assay: MIC on GC agar plates; type: cell-based, Neisseria gonorrhoeae; conditions: Neisseria gonorrhoeae, ATCC49226, read-out: MIC
Description: An initial screening for bacterial inhibition was performed by the agar diffusion method. […] DMSO and TSB were included as negative controls. Gentamicin and trimethoprim sulfamethoxazole were included as a positive control for growth inhibition. Derivatives showing growth inhibition were tested at least twice before being selected for the microdilution test. For N. gonorrhoeae, the agar diffusion method was also used for screening with some modifications. […] Penicillin and tetracycline were used as controls. […] Briefly, GC agar supplemented with 1% isovitalex was prepared with increasing concentrations of the new compounds and inoculated with 10 µL of a bacterial suspension (1 × 10^4 CFU). The lowest concentration of the compound that inhibited bacterial growth was determined as the MIC. Bacterial growth was examined and verified using the oxidase test. The experiments were performed in duplicate in at least two independent assays.

[4] = test system: N. gonorrhoeae ATCC 49226; conditions: control drugs, range in parenthesis; cited from earlier work
[5] = test system: MOLT-4; design: method as in earlier work; conditions: ref https://dtp.cancer.gov/dtpstandard/cancerscreeningdata/index.jsp, read-out: GI50 5-FU (NS 18893); cited from earlier work
[6] = test system: HCT-116; design: method as in earlier work; conditions: ref https://dtp.cancer.gov/dtpstandard/cancerscreeningdata/index.jsp, read-out: GI50 5-FU (NS 18893); cited from earlier work
[7] = test system: SW-620; design: method as in earlier work; conditions: ref https://dtp.cancer.gov/dtpstandard/cancerscreeningdata/index.jsp, read-out: GI50 5-FU (NS 18893); cited from earlier work
[8] = test system: MCF7; design: method as in earlier work; conditions: ref https://dtp.cancer.gov/dtpstandard/cancerscreeningdata/index.jsp, read-out: GI50 5-FU (NS 18893); cited from earlier work
[9] = test system: HT29; design: method as in earlier work; conditions: ref https://dtp.cancer.gov/dtpstandard/cancerscreeningdata/index.jsp, read-out: GI50 5-FU (NS 18893); cited from earlier work
[10] = test system: SF-539; design: method as in earlier work; conditions: ref https://dtp.cancer.gov/dtpstandard/cancerscreeningdata/index.jsp, read-out: GI50 5-FU (NS 18893); cited from earlier work
[11] = test system: KM12; design: method as in earlier work; conditions: ref https://dtp.cancer.gov/dtpstandard/cancerscreeningdata/index.jsp, read-out: GI50 5-FU (NS 18893); cited from earlier work
[12] = test system: HCC-2998; design: method as in earlier work; conditions: ref https://dtp.cancer.gov/dtpstandard/cancerscreeningdata/index.jsp, read-out: GI50 5-FU (NS 18893); cited from earlier work
[13] = test system: HOP-92; design: method as in earlier work; conditions: ref https://dtp.cancer.gov/dtpstandard/cancerscreeningdata/index.jsp, read-out: GI50 5-FU (NS 18893); cited from earlier work
[14] = test system: SNB-75; design: method as in earlier work; conditions: ref https://dtp.cancer.gov/dtpstandard/cancerscreeningdata/index.jsp, read-out: GI50 5-FU (NS 18893); cited from earlier work
[15] = test system: CAKI-1; design: method as in earlier work; conditions: ref https://dtp.cancer.gov/dtpstandard/cancerscreeningdata/index.jsp, read-out: GI50 5-FU (NS 18893); cited from earlier work
[16] = test system: IGROV1; design: method as in earlier work; conditions: ref https://dtp.cancer.gov/dtpstandard/cancerscreeningdata/index.jsp, read-out: GI50 5-FU (NS 18893); cited from earlier work
[17] = test system: HL-60(TB); design: method as in earlier work; conditions: ref https://dtp.cancer.gov/dtpstandard/cancerscreeningdata/index.jsp, read-out: GI50 5-FU (NS 18893); cited from earlier work
[18] = test system: RPMI-8226; design: method as in earlier work; conditions: ref https://dtp.cancer.gov/dtpstandard/cancerscreeningdata/index.jsp, read-out: GI50 5-FU (NS 18893); cited from earlier work
[19] = test system: K-562; design: method as in earlier work; conditions: ref https://dtp.cancer.gov/dtpstandard/cancerscreeningdata/index.jsp, read-out: GI50 5-FU (NS 18893); cited from earlier work
[20] = test system: CCRF-CEM; design: method as in earlier work; conditions: ref https://dtp.cancer.gov/dtpstandard/cancerscreeningdata/index.jsp, read-out: GI50 5-FU (NS 18893); cited from earlier work
[21] = test system: NCI-H522; design: method as in earlier work; conditions: ref https://dtp.cancer.gov/dtpstandard/cancerscreeningdata/index.jsp, read-out: GI50 5-FU (NS 18893); cited from earlier work
[22] = test system: OVCAR-3; design: method as in earlier work; conditions: ref https://dtp.cancer.gov/dtpstandard/cancerscreeningdata/index.jsp, read-out: GI50 5-FU (NS 18893); cited from earlier work
[23] = test system: SN12C; design: method as in earlier work; conditions: ref https://dtp.cancer.gov/dtpstandard/cancerscreeningdata/index.jsp, read-out: GI50 5-FU (NS 18893); cited from earlier work
[24] = test system: RXF 393; design: method as in earlier work; conditions: ref https://dtp.cancer.gov/dtpstandard/cancerscreeningdata/index.jsp, read-out: GI50 5-FU (NS 18893); cited from earlier work
[25] = test system: MDA-MB-468; design: method as in earlier work; conditions: ref https://dtp.cancer.gov/dtpstandard/cancerscreeningdata/index.jsp, read-out: GI50 5-FU (NS 18893); cited from earlier work
[26] = test system: LOX IMVI; design: method as in earlier work; conditions: ref https://dtp.cancer.gov/dtpstandard/cancerscreeningdata/index.jsp, read-out: GI50 5-FU (NS 18893); cited from earlier work
[27] = test system: SR; design: method as in earlier work; conditions: ref https://dtp.cancer.gov/dtpstandard/cancerscreeningdata/index.jsp, read-out: GI50 5-FU (NS 18893); cited from earlier work
[28] = test system: UO-31; design: method as in earlier work; conditions: ref https://dtp.cancer.gov/dtpstandard/cancerscreeningdata/index.jsp, read-out: GI50 5-FU (NS 18893); cited from earlier work
[29] = test system: HCT-15; design: method as in earlier work; conditions: ref https://dtp.cancer.gov/dtpstandard/cancerscreeningdata/index.jsp, read-out: GI50 5-FU (NS 18893); cited from earlier work
[30] = test system: U251; design: method as in earlier work; conditions: ref https://dtp.cancer.gov/dtpstandard/cancerscreeningdata/index.jsp, read-out: GI50 5-FU (NS 18893); cited from earlier work
[31] = test system: AChE; design: method as in PMID 34795867, PMID 35252706, doi:10.1016/j.molstruc.2021.132275, PMID 18811208, doi:10.1016/j.molstruc.2022.132498; conditions: cited from earlier work
[32] = test system: Mycobacterium tuberculosis H37Rv; design: method as in PMID 34795867, PMID 35252706, doi:10.1016/j.molstruc.2021.132275, PMID 18811208, doi:10.1016/j.molstruc.2022.132498; conditions: cited from earlier work

For `CN(C)[C@@H]1C(O)=C(C(N)=O)C(=O)[C@@]2(O)C(O)=C3C(=O)c4c(O)cccc4[C@@](C)(O)[C@H]3C[C@@H]12` [Tetracycline, reference compound], the MIC [1] is given as 0.05 µg/mL (≈ 0.113 µM), the MIC range [2] is given as 0.05 to 0.25 µg/mL and the MIC [3] is given as 1 µg/mL (≈ 2.25 µM). For the same compound, the “MIC range values for this strain” value [4] was 0.25 to 1.0 µg/mL.

For `O=c1[nH]cc(F)c(=O)[nH]1` [5-FU, 5-fluorouracil], the GI50 [5] is listed as 350 nM, the GI50 [6] is listed as 230 nM and the GI50 [7] is listed as 930 nM. For the same compound, the GI50 [8] was 80 nM, the GI50 [9] was 180 nM and the GI50 [10] was 60 nM. The GI50 [11] was 210 nM, the GI50 [12] was 50 nM and the GI50 [13] was 78000 nM. The GI50 [14] was 78700 nM, the GI50 [15] was 70 nM and the GI50 [16] was 1220 nM. For the same compound, the GI50 [17] was 2510 nM, the GI50 [18] was 40 nM and the GI50 [19] was 3580 nM. The GI50 [20] was 9790 nM, the GI50 [21] was 7280 nM and the GI50 [22] was 20 nM. The GI50 [23] was 500 nM, the GI50 [24] was 2610 nM and the GI50 [25] was 6610 nM. The GI50 [26] was 250 nM, the GI50 [27] was 20 nM and the GI50 [28] was 1430 nM. For the same compound, the GI50 [29] was 110 nM and the GI50 [30] was 910 nM.

In the case of `CN(c1nc(Cl)nc(N2CCN(Cc3nc4ccccc4[nH]3)CC2)n1)C1CCCCC1` [compound 2], the IC50 [31] is listed as 44 nM.

In the case of `O=C(/C=C/c1ccc(F)cc1F)c1ccc(Nc2nc(Cl)nc(Cl)n2)cc1` [compound 3], the MIC [32] is listed as 3.125 µg/mL (≈ 7.67 µM).
